Data taken from ChEMBL document CHEMBL1759974, “Discovery of triazine-benzimidazoles as selective inhibitors of mTOR” (Bioorg Med Chem Lett, 2011).

Columns and labels:
[1] = biological target: T1, Serine/threonine-protein kinase mTOR (Homo sapiens, UniProt P42345)
Description: Inhibition of mTOR in human U-87 cells assessed as inhibition of phosphorylation of AKT at S473

[2] = biological target: Phosphatidylinositol 4,5-bisphosphate 3-kinase catalytic subunit alpha isoform (Homo sapiens, UniProt P42336)
[3] = biological target: T2, Phosphatidylinositol 4,5-bisphosphate 3-kinase catalytic subunit delta isoform (Homo sapiens, UniProt O00329)
T2 sequence (O00329 whole entry): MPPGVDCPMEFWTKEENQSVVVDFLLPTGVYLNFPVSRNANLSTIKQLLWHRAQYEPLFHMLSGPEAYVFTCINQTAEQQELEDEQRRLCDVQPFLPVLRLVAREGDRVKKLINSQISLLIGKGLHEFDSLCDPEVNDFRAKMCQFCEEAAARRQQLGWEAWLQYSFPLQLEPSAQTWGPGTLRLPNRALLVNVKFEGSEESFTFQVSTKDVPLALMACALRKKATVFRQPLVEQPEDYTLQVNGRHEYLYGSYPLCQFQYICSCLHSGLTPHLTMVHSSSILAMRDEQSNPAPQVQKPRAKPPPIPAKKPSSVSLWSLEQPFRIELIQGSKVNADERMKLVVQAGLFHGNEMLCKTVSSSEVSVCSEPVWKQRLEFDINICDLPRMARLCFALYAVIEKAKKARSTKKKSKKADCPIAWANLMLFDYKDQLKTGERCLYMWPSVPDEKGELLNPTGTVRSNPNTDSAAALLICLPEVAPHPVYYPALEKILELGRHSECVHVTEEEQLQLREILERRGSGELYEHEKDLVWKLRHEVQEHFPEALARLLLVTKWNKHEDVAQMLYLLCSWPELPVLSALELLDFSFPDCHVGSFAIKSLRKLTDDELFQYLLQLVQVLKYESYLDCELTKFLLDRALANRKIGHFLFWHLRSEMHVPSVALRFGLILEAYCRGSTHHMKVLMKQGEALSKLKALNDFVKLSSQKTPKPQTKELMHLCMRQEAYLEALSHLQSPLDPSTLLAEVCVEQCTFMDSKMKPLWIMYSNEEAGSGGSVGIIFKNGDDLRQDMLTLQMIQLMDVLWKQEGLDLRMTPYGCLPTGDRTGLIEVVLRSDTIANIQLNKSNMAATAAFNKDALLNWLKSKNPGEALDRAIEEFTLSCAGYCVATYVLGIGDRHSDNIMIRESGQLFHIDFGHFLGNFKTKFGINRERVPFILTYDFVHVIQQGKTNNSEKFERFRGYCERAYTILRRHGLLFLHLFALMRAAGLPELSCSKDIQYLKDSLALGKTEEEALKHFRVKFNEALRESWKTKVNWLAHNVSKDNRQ

[4] = biological target: T1, Serine/threonine-protein kinase mTOR; remark: listed apart in the source
[5] = biological target: Phosphatidylinositol 4,5-bisphosphate 3-kinase catalytic subunit beta isoform (Homo sapiens, UniProt P42338)
Sequence of Phosphatidylinositol 4,5-bisphosphate 3-kinase catalytic subunit beta isoform (P42338 whole entry, canonical isoform): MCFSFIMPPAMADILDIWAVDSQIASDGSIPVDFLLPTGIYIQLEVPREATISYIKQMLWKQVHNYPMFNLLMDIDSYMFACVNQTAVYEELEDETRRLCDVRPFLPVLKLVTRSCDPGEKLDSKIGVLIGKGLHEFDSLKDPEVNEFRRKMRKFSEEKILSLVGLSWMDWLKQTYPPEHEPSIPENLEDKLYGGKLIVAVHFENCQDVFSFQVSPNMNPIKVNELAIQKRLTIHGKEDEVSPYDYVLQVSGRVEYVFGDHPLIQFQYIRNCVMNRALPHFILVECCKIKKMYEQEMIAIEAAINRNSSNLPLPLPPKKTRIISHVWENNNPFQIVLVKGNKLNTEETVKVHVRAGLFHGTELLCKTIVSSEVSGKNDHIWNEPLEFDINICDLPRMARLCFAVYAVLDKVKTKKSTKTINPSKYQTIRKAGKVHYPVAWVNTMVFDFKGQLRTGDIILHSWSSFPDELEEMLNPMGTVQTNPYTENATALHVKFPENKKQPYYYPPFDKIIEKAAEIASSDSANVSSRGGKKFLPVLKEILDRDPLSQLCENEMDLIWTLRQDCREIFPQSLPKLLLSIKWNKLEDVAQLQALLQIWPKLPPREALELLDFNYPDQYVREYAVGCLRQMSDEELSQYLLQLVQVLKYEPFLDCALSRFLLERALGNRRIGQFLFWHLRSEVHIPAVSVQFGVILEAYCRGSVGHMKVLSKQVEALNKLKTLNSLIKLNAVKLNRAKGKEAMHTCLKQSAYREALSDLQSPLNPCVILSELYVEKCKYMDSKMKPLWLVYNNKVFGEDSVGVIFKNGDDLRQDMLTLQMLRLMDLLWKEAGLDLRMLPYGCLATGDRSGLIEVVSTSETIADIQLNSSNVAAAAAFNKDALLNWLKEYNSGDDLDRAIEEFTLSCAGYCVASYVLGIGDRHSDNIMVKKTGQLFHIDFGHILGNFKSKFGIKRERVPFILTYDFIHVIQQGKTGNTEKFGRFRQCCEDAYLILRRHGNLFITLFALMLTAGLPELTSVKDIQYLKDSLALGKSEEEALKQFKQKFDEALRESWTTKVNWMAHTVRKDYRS

[6] = biological target: T1, Serine/threonine-protein kinase mTOR; remark: listed apart in the source
[7] = biological target: Phosphatidylinositol 4,5-bisphosphate 3-kinase catalytic subunit gamma isoform (Homo sapiens, UniProt P48736)
Sequence of Phosphatidylinositol 4,5-bisphosphate 3-kinase catalytic subunit gamma isoform (P48736 whole entry, canonical isoform): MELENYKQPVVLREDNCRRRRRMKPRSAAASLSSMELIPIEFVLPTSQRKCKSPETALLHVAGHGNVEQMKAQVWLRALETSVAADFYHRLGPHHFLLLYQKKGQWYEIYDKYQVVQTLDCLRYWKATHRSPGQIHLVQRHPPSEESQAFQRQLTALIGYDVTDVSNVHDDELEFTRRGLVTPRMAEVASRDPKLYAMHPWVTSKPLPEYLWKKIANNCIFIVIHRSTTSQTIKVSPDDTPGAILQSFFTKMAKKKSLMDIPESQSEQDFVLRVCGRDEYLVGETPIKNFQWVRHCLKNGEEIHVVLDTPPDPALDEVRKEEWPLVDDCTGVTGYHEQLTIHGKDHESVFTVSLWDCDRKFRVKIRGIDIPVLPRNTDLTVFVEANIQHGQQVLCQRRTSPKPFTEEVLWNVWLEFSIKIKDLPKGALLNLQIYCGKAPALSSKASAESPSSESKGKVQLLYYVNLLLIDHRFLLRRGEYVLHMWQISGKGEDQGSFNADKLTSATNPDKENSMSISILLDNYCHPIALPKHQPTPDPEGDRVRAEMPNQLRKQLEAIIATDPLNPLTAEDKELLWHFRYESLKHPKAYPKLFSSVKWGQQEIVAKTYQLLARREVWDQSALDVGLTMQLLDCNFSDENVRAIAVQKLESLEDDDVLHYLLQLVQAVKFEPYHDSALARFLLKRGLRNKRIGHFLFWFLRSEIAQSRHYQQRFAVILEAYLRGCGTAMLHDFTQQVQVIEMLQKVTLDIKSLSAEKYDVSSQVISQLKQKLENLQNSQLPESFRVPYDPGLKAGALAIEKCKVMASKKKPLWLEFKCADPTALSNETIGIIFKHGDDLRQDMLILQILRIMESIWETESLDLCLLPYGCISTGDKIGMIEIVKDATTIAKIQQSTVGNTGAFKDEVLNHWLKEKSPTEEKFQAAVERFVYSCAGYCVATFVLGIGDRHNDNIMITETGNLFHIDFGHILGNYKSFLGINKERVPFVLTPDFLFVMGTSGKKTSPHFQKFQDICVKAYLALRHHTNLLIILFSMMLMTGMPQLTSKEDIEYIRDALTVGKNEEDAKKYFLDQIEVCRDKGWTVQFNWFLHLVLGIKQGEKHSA

[8] = Volume of distribution at steady state in Sprague-Dawley rat at 1 mg/kg, iv and 2 mg/kg, po; assay type: ADME, organism-based; details: in vivo, read-out: Vdss
Rattus norvegicus = assay: AUC in Sprague-Dawley rat at 1 mg/kg, iv; assay type: ADME, organism-based, Plasma; set-up: dose 1 mg/kg, route intravenous; details: in vivo
[9] = Plasma protein binding in Sprague-Dawley rat at 1 mg/kg, iv and 2 mg/kg, po; assay type: ADME, organism-based; details: read-out: PPB (converted)
[10] = Half life in Sprague-Dawley rat at 1 mg/kg, iv; assay type: ADME, organism-based; set-up: dose 1 mg/kg, route intravenous; details: in vivo
[11] = Clearance in Sprague-Dawley rat at 1 mg/kg, iv and 2 mg/kg, po; assay type: ADME, organism-based; details: in vivo
[12] = Oral bioavailability in Sprague-Dawley rat at 2 mg/kg; assay type: ADME, organism-based; details: in vivo
[13] = Intrinsic clearance in human liver microsomes; assay type: ADME, Microsome
[14] = Intrinsic clearance in rat liver microsomes; assay type: ADME, Microsome

Sequence of Phosphatidylinositol 4,5-bisphosphate 3-kinase catalytic subunit alpha isoform (P42336 whole entry, canonical isoform): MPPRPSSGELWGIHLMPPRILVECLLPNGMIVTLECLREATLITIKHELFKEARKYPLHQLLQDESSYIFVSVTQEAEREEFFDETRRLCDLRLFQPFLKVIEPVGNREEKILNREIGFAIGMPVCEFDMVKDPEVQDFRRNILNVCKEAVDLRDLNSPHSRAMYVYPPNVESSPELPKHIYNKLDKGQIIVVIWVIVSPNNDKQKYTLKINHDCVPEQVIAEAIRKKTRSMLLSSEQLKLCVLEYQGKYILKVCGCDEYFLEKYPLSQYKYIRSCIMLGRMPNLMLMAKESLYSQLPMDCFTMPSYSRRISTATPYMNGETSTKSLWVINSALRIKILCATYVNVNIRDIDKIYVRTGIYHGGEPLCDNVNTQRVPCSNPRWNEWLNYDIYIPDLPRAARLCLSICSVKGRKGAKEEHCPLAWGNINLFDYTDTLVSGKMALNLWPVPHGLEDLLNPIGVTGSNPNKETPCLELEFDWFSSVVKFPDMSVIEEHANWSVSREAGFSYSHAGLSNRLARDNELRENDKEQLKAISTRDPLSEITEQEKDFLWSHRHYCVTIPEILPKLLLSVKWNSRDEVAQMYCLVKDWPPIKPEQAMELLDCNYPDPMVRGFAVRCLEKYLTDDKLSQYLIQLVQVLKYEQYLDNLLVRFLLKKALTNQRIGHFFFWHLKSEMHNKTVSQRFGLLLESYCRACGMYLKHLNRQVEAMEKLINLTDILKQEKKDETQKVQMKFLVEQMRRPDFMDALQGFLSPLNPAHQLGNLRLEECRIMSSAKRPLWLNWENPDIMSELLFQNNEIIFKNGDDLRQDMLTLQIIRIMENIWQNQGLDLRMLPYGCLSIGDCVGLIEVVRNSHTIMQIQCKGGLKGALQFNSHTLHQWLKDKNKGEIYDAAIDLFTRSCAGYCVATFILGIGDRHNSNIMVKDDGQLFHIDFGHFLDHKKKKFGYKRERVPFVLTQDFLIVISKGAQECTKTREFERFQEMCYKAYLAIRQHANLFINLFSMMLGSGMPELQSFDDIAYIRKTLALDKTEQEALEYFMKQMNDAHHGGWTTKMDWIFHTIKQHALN

| SMILES | IC50 [1] [nM] | IC50 [2] [nM] | IC50 [3] [nM] | IC50 [4] [nM] | IC50 [5] [nM] | IC50 [6] [nM] | IC50 [7] [nM] | Vd [8] [L/kg] | AUC (Rattus norvegicus) [nM] | fraction unbound [9] | half-life [10] [min] | clearance [11] [mL/min/kg] | bioavailability [12] [%] | microsomal CLint [13] [µL/min/mg] | microsomal CLint [14] [µL/min/mg] |
| --- | --- | --- | --- | --- | --- | --- | --- | --- | --- | --- | --- | --- | --- | --- | --- |
| Cc1nc(N)nc(-n2c(Nc3cccc(C(N)=O)c3)nc3ccccc32)n1 | 190 | 290 | 40 | 3900 | 1030 | 175 | 480 |  |  |  |  |  |  |  |  |
| CCc1nc(N)nc(-n2c(Nc3cccc(O)c3)nc3ccccc32)n1 | 410 | 340 |  | 6300 |  | 390 |  |  |  |  |  |  |  |  |  |
| Cc1nc(N)nc(-n2c(Nc3ccn(C(F)F)n3)nc3ccccc32)n1 | 770 | 10400 | 530 | 6500 | 22300 | 340 | 860 |  |  |  |  |  |  |  |  |
| Cc1nccc(-n2c(Nc3cccc(O)c3)nc3ccccc32)n1 | 600 | 370 |  | 8900 |  | 370 |  |  |  |  |  |  |  |  |  |
| Nc1ncnc(-n2c(Nc3cccc(O)c3)nc3ccccc32)n1 | 34 | 130 |  | 710 |  | 21 |  |  |  |  |  |  |  |  |  |
| COc1nc(NCC#N)nc(-n2c(Nc3cccc(O)c3)nc3ccccc32)n1 | 2100 | 520 |  | 21500 |  | > 50000 |  |  |  |  |  |  |  |  |  |
| Cc1nc(N)nc(-n2c(Nc3cn[nH]c3)nc3ccccc32)n1 | 180 | 460 | 690 | 5300 | 1000 | 190 | 610 |  |  |  |  |  |  |  |  |
| CC(=O)Nc1ccc(Nc2nc3ccccc3n2-c2nc(C)nc(N)n2)cc1 | 180 | 23 | 71 | 340 | 410 | 13 | 20 |  |  |  |  |  |  |  |  |
| Cc1nc(N)nc(-n2c(Nc3ccn[nH]3)nc3cc(F)c(F)cc32)n1 | 45 |  | 110 | 340 | 1000 | 24 | 250 | 3 | 964 | 0.01 | 42 | 50 | 6 |  |  |
| CCCc1nc(N)nc(-n2c(Nc3cccc(O)c3)nc3ccccc32)n1 | 2640 | 3500 |  | > 25000 |  | 4700 |  |  |  |  |  |  |  |  |  |
| Oc1cccc(Nc2nc3ccccc3n2-c2ncnc(Nc3ccccc3)n2)c1 | 870 | 720 |  | > 25000 |  | 2300 |  |  |  |  |  |  |  |  |  |
| COc1ncnc(-n2c(Nc3cccc(O)c3)nc3ccccc32)n1 | 1900 | 1700 |  | > 25000 |  | > 50000 |  |  |  |  |  |  |  |  |  |
| Cc1nc(N)nc(-n2c(Nc3ccn(C)n3)nc3ccccc32)n1 | 580 | 6200 | 4600 | 5300 | 28800 | 270 | 4100 |  |  |  |  |  |  |  |  |
| Cc1nc(N)nc(-n2c(Nc3ccon3)nc3ccccc32)n1 | 260 | 840 | 1300 | 3300 | 3100 | 150 | 2300 | 1.4 | 1930 | 0.023 | 30 | 30 |  | 39 | 46 |
| CC(=O)Nc1cccc(Nc2nc3ccccc3n2-c2nc(C)nc(N)n2)c1 | 120 | 630 | 890 | 1500 | 1400 | 290 | 110 |  |  |  |  |  |  |  |  |
| Cc1nc(N)nc(-n2c(Nc3ccc4cc[nH]c4c3)nc3ccccc32)n1 | 140 | 230 | 240 | 960 | 1000 | 28 | 340 |  |  |  |  |  |  |  |  |
| Cc1nc(N)nc(-n2c(Nc3ccccc3)nc3ccccc32)n1 | 190 | 260 | 360 | > 25000 | 1000 | 420 | 470 |  |  |  |  |  |  |  |  |

| SMILES | IC50 [1] [nM] | IC50 [2] [nM] | IC50 [3] [nM] | IC50 [4] [nM] | IC50 [5] [nM] | IC50 [6] [nM] | IC50 [7] [nM] | Vd [8] [L/kg] | AUC (Rattus norvegicus) [nM] | fraction unbound [9] | half-life [10] [min] | clearance [11] [mL/min/kg] | bioavailability [12] [%] | microsomal CLint [13] [µL/min/mg] | microsomal CLint [14] [µL/min/mg] |
| --- | --- | --- | --- | --- | --- | --- | --- | --- | --- | --- | --- | --- | --- | --- | --- |
| Cc1nc(NCC#N)nc(-n2c(Nc3cccc(O)c3)nc3ccccc32)n1 | 17 | 32 |  | 380 |  | 8 |  |  |  |  |  |  |  |  |  |
| Oc1cccc(Nc2nc3ccccc3n2-c2ncncn2)c1 | 1600 | 2000 |  | > 25000 |  | 3000 |  |  |  |  |  |  |  |  |  |
| Cc1nc(N)cc(-n2c(Nc3cccc(O)c3)nc3ccccc32)n1 | 43 | 42 |  | 1200 |  | 87 |  |  |  |  |  |  |  |  |  |
| Cc1nc(N)nc(-n2c(Nc3ccnn3C)nc3ccccc32)n1 | 540 | 1900 | 3300 | > 25000 | 6900 | > 50000 | 2300 |  |  |  |  |  |  |  |  |
| CNC(=O)Nc1ccc(Nc2nc3ccccc3n2-c2nc(C)nc(N)n2)cc1 | 11 | 6 | 11 | 340 | 17 | 2 | 13 |  |  |  |  |  |  |  |  |
| CNC(=O)c1ccc(Nc2nc3ccccc3n2-c2nc(C)nc(N)n2)o1 | 680 | 520 | 140 | > 25000 | 1800 | 150 | 26 |  |  |  |  |  |  |  |  |
| Nc1cc(-n2c(Nc3cccc(O)c3)nc3ccccc32)ncn1 | 420 | 1000 |  | 3500 |  | 110 |  |  |  |  |  |  |  |  |  |
| Cc1nc(N)nc(-n2c(Nc3cc(O)cc(O)c3)nc3ccccc32)n1 | 5 | 0.6 | 0.4 | 97 | 0.2 | 0.2 | 5 |  |  |  |  |  |  |  |  |
| CNc1ncnc(-n2c(Nc3cccc(O)c3)nc3ccccc32)n1 | 180 | 190 |  | 2900 |  | 250 |  |  |  |  |  |  |  |  |  |
| Oc1cccc(Nc2nc3ccccc3n2-c2ncnc(NCc3ccccn3)n2)c1 | 2400 | 3600 |  | > 25000 |  | 21000 |  |  |  |  |  |  |  |  |  |
| Oc1cccc(Nc2nc3ccccc3n2-c2ncnc(NCC(F)(F)F)n2)c1 | 3200 | 3600 |  | > 25000 |  | > 50000 |  |  |  |  |  |  |  |  |  |
| Cc1nc(N)nc(-n2c(NC3CCOCC3)nc3ccccc32)n1 | 680 | 1600 | 710 | > 25000 | 2400 | 21400 | 30 |  |  |  |  |  |  |  |  |
| Cc1nc(N)nc(-n2c(Nc3ccc4cn[nH]c4c3)nc3ccccc32)n1 | 120 | 200 | 320 | 1500 | 630 | 27 | 200 |  |  |  |  |  |  |  |  |
| Cc1nc(N)nc(-n2c(Nc3n[nH]c4ccccc34)nc3ccccc32)n1 | 250 | 960 | 270 | 4200 | 420 | 60 | 190 |  |  |  |  |  |  |  |  |
| C#CCNc1nc(C)nc(-n2c(Nc3ccn[nH]3)nc3ccccc32)n1 | 150 | 4000 | 4600 | 1400 | 3700 | 80 | 3700 |  |  |  |  |  |  |  |  |
| Cc1nc(N)nc(-n2c(Nc3nc[nH]n3)nc3ccccc32)n1 | 4600 |  |  | > 25000 |  | 33100 |  |  |  |  |  |  |  |  |  |
